Test results as given in patent US20210128740A1, “HDAC INHIBITORS-BASED ANTIBODY DRUG CONJUGATES (ADCs) AND USE IN THERAPY” (ALFASIGMA S.P.A., priority 2017, published 2021).

Assays:
Design in all cases: species or system mice
[1] = system: NCI-H1975 non-small cell lung carcinoma; assay: In vivo antitumor effect against s.c. NCI-H1975 non-small cell lung cancer; details: 120 mg/kg, ip, q4dx4
Method: Nude Nu/Nu female mice (from Charles River, Italy) were given a single subcutaneous injection of 5×10^6 NCI-H1975 non-small cell lung carcinoma cells suspended in 100 μL cell culture medium RPMI supplemented with 10% FBS. […] Vehicle group was treated by PBS. Tumor growth was measured with a caliper and tumor volume was calculated using the formula length (mm)×width 2 (mm)/2. The tumor inhibition was calculated according to the equation: % TVI=100−(mean tumor volume of treated group/mean tumor volume of control group)×100. Toxicity was evaluated on the basis of the body weight reduction.
Animals were euthanized by CO2 inhalation when the tumors reached a volume around 1200 mm^3.

[2] = system: A549 non-small cell lung carcinoma; assay: In vivo antitumor effect of combination of Cetuximab with ST7612AA1 vs ADC against s.c. A549 lung cancer (Example 31)
Method: The human A549 lung carcinoma cells were cultured in their appropriate complete medium. On the day of tumor injection, cells were harvested from subconfluent cultures by trypsinization, washed with PBS, suspended in PBS and subcutaneously injected into the right flank of immunodeficient mice (5×10^6/100 μL). Treatments started when tumor size was around 80 mm^3 and mice were randomized into the experimental groups (10 mice/group): […]

[3] = system: CAPAN-1 orthotopic pancreatic tumor; assay: In vivo antitumor effect against orthotopic CAPAN-1 pancreas cancer; details: 200 mg/kg, ip, q4dx4
Description: Capan-1 (1×10^6) cells were directly injected into pancreas of experimental groups.

Q: Which “Antitumor activity” value [1] does the source give for `CC(=O)SCCCCC[C@H](NC(=O)[C@H]1CCC(=O)N1)C(=O)Nc1ccccc1` [ST7612AA1] here?
A: The value was “completely inactive”.

Q: What about the “Antitumor activity” value ([2]; 0.1 mg/kg, ip, q4dx4) of the same molecule?
A: Its value is “not effective”.

Q: And the “TVI at day 50” value ([2]; 0.1 mg/kg, ip, q4dx4)?
A: Its value is 0, P = 0.95.

Q: What about the “TVI at day 56” value ([2]; 0.1 mg/kg, ip, q4dx4) of the same molecule?
A: Its value is 0, P = 0.88.

Q: What about the “TVI at day 50” value ([2]; 40 mg/kg, po, qdx5/wx3w) of the same molecule?
A: The value was 33, P = 0.007.

Q: What about the “TVI at day 56” value ([2]; 40 mg/kg, po, qdx5/wx3w) of the same molecule?
A: The value was 35, P = 0.0009.

Q: And the Tumor growth inhibition [3]?
A: Its Tumor growth inhibition is 32%.
